“Also recorded” adds a separate entry of the source.
Experiments:
[1] = test system: Msx-1, Msx-2, Sox-2, Oct-4 and Nanog in adult human fibroblasts (CRL-2352); assay: Immunocytochemistry / western blot for stem cell transcription factors in FGF2-cultured fibroblasts; type: cell-based
Method: Adult human fibroblasts (CRL-2352, ATCC) were cultured in conditions of 37° C., 5% CO2, 5% O2 90% N2 were seeded into 24 well plates (BD Falcon) either without substrate or with 15 mm Thermanox® coverslips (Nalge Nunc) at 5,000 cells per well in medium consisting of DMEM with 4 mM fresh L-glutamine: Ham's F12 medium (50:50) supplemented with 1×TCH serum replacement (Protide Pharmaceuticals), 1×ITS-X (Invritrogen), 2% FetalClone III (Hyclone), and 4 ng/ml FGF2 (Chemicon). After 5 days, the cells were washed with DPBS w/o Ca/Mg (Mediatech) and fixed in methanol (−20° C.) for 10 min, washed with DPBS and stored in DPBS at 4° C. until use. For detection of nuclear antigens (Msx-1, Msx-2, Sox-2, Oct-4 and Nanog), enhanced nuclear membrane permeabilization was performed by incubation with 1.5 N HCl for 20 min, followed by 3 washes (5 min) in PBS. For immuno-cytochemistry, cells were washed with PBS/Tween (PBS, MediaTech with 0.05% Tween-20, Biorad) and blocked for 30 min at RT with PBS containing 0.05% Tween, 5% FBS, and 1% BSA). Primary antibodies (1:200 dilution) were added in blocking solution for 30 min at RT. Cells were washed 4× in PBS/Tween and Alexafluor-568 labeled appropriate secondary antibody diluted 1:1000 in blocking solution added for 30 min. Cells were washed 4× in PBS/Tween and stored in PBS at 4 C until image analysis. Antibodies used were: Msx-1 (SantaCruz, sc-17726), Msx-2 (Santa Cruz, sc-17729), Sox-2 (Abeam, ab15830), Oct4 (Santa Cruz, sc-8630), Nanog (abeam ab21624) FGF receptor-1 (Abgent, AP7636a), FGF Receptor-2 (Abgent, AP7636a), FGF2 (N-terminus, Santa Cruz sc-1390), FGF2 (internal, Santa Cruz sc-79), fibroblast specific protein (FSP, Sigma). Coverslips were removed and mounted onto glass slides in 80% glycerol in PBS containing 0.1% Na-Azide and sealed with nail polish. Cells were visualized using at Olympus IX81 inverted microscope with epi-fluorescence using appropriate filters (Semrock, Inc.) and phase contrast. Images were collected using a 12 bit Hamamatzu CCD camera (Model C4742-80-12AG) and images processes using Slidebook®.
Fibroblasts were seeded into 24 well plates (BD Falcon) with 15 mm Thermanox® coverslips (Nunc) or #2 12 mm round glass coverslips (VWR) at 5,000 cells per well in medium consisting of DMEM with 4 mM fresh L-glutamine: Ham's F12 medium (60:40) supplemented with 1×TCH serum replacement (Protide Pharmaceuticals), 1×ITS-X (Invitrogen), 2% FetalClone III (Hyclone) and cultured at 37° C., 5% CO2, 5% O2 and 90% N2. For FGF2 treatments, FGF2 (4 ng/ml) was added to the medium at the time of seeding. After 7 days, the cells were washed with DPBS w/o Ca/Mg (Mediatech) and fixed in methanol (−20° C.) for 10 min, washed with DPBS and stored in DPBS at 4 C until use. Cells were washed with PBS/Tween (PBS, MediaTech with 0.05% Tween-20, Biorad) and blocked for 30 min at RT with PBS containing 0.05% Tween, 5% FBS, and 1% BSA). Primary antibodies (2.5 μg/ml) were added in blocking solution for 30 min at RT. Cells were washed 4× in PBS/Tween and Alexafluor-568 labeled appropriate secondary antibody (4 μg/ml) in blocking solution added for 30 min. Cells were washed 4× in PBS/Tween and stored in PBS at 4° C. until image analysis. Antibodies used were: Oct4 (Abcam ab19857), Sox2 (Abcam, ab15830), Nanog (Abcam, ab21624, FGFR-1 (Abgent, AP7636a), FGFR-2 (Abgent, AP7636a), FGFR3 (Abcam ab10651), FGFR4 (Abcam ab41948), FGF2 (Santa Cruz, sc-1390 and sc-79). Coverslips were removed and mounted onto glass slides in 80% glycerol in PBS containing 0.1% Na-Azide and sealed with nail polish. Cells were visualized using an Olympus IX81 inverted microscope with epi-fluorescence using appropriate filters (Semrock, Inc.) and phase contrast. Images were collected using a 12 bit Hamamatzu CCD camera and processed using Slidebook®. […]

[2] = test system: adult human dermal fibroblasts (CRL-2352); assay: Effect of FGF2 and oxygen level on proliferation and in vitro lifespan (population doublings to senescence); type: cell-based; details: FGF2 10 ng/ml

FGF2: human recombinant FGF2 (Invitrogen, Chemicon or Protide), basic fibroblast growth factor
effect on Oct4, Sox2 and Nanog protein ([1]; FGF2 4 ng/ml, 5% O2, 7 days): translation and nuclear translocation
cells with stem-like nuclear localization of the transcription factors ([1]; FGF2, lowered oxygen, 7 days of culture): up to 30%
localization of Msx2, Sox2 and Oct4, Thermanox coverslips ([1]; Thermanox coverslips, 2% serum, low O2, FGF2): detected in the nucleus; also recorded: nuclear localization of all three transcription factors
FGF2 concentration at which Sox-2 is induced ([1]; culture for 2 days, preliminary dose response): 0.5 ng/mL
ICC for transcription factors Oct4, Sox2 and Msx1 ([1]; early transition of cultures grown in the presence of FGF2): positive
localization of induced Sox2 expression ([1]; preliminary dose response, before change to Thermanox coverslips): restricted to the cytoplasm
expression of Msx-2, Sox-2 and Oct-4, tissue culture plastic ([1]; tissue culture plastic, low O2, low serum, FGF2 4 ng/ml, 5 days): some cytoplasmic expression
effect on adult fibroblast proliferation at 10 ng/ml [2]: halted adult fibroblast proliferation

From patent US9290740B2, “Use of basic fibroblast growth factor in the de-differentiation of animal connective tissue cells” (Worcester Polytechnic Institute, priority 2008, dated 2016)
